The results in this text go back to patent publication US9468661B2, “Pyrrolidine derivatives and their use as complement pathway modulators” (priority 2012, dated 2016).

The term pIC50 denotes the negative decadic logarithm of the IC50, by convention in mol/L.

pIC50: −log10 of the molar value.

Chain of human factor D (P00746 26-253): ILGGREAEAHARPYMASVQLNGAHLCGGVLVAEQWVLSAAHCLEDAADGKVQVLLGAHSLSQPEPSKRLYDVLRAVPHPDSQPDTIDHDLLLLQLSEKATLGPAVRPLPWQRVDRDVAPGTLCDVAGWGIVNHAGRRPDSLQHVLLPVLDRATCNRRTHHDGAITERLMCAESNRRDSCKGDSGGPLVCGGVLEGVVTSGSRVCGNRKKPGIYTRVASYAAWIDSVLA

The target of the first test is human factor D (Homo sapiens (Human), UniProt P00746). In words: biochemical. The format is biochemical. Conditions: Factor D inhibition data using Method 1; recombinant human factor D 10 nM, substrate Z-Lys-thiobenzyl, fluorescence; read-out: IC50. As for the experimental part:
Human Complement Factor D Assay: Method 1
Recombinant human factor D (expressed in E. coli and purified using standard methods) at 10 nM concentration is incubated with test compound at various concentrations for 1 hour at room temperature in 0.1 M Hepes buffer, pH 7.5, containing 1 mM MgCl2, 1 M NaCl and 0.05% CHAPS. A synthetic substrate Z-Lys-thiobenzyl and 2,4-dinitrobenzenesulfonyl-fluoresceine are added to final concentrations of 200 μM and 25 μM, respectively. The increase in fluorescence is recorded at excitation of 485 nm and emission at 535 nm in a microplate spectrofluorimeter. IC50 values are calculated from percentage of inhibition of complement factor D-activity as a function of test compound concentration.
On to `CC1CCCC(CNC(=O)[C@@H]2C[C@H]3C[C@H]3N2C(=O)Cn2nc(C(N)=O)c3ccncc32)C1` (single isomer, unassigned; dia 2) [Example 116], for which the pIC50 is 6.35. The same measure, in the same setting: under `CC(=O)c1nn(CC(=O)N2[C@@H]3C[C@@H]3C[C@H]2C(=O)NCC2CCCC(C)C2)c2cnccc12` (single isomer, unassigned; dia 2) [Example 120] stands 7.15; under `CC1CCCC1CNC(=O)[C@@H]1C[C@H]2C[C@H]2N1C(=O)Cn1nc(C(N)=O)c2ccncc21` (single isomer, unassigned; dia 3) [Example 87], 6.34; under `CC1CCCC(CNC(=O)[C@@H]2C[C@H]3C[C@H]3N2C(=O)Cn2nc(C(N)=O)c3ccncc32)C1` (single isomer, unassigned; dia 3) [Example 117], 6.51. The same measure, in the same setting: under `CC1CCCC1CNC(=O)[C@@H]1C[C@H]2C[C@H]2N1C(=O)Cn1nc(C(N)=O)c2ccncc21` (single isomer, unassigned; dia 4) [Example 88] stands 6.11.

As for `CC1CCCC(CNC(=O)[C@@H]2C[C@H]3C[C@H]3N2C(=O)Cn2nc(C(N)=O)c3ccncc32)C1` (single isomer, unassigned; dia 4) [Example 118], the pIC50 was 6.80.

Consider `CC(=O)c1nn(CC(=O)N2[C@@H]3C[C@@H]3C[C@H]2C(=O)NCC2CC2)c2ncccc12` [Example 1, (1R,3S,5R)-2-[2-(3-Acetyl-pyrazolo[3,4-b]pyridin-1-yl)-acetyl]-2-aza-bicyclo[3.1.0]hexane-3-carboxylic acid cyclopropylmethyl-amide], for which the pIC50 was 5.32. On the same count and under the same terms, for `CC(=O)c1nn(CC(=O)N2[C@@H]3C[C@@H]3C[C@H]2C(=O)NCC2C(C)(C)C2(C)C)c2ncccc12` [Example 2, (1R,3S,5R)-2-[2-(3-Acetyl-pyrazolo[3,4-b]pyridin-1-yl)-acetyl]-2-aza-bicyclo[3.1.0] hexane-3-carboxylic acid (2,2,3,3-tetramethyl-cyclopropylmethyl)-amide] the value was 5.73.

In the case of `CC(=O)c1nn(CC(=O)N2[C@@H]3C[C@@H]3C[C@H]2C(=O)NCC2CCC3(CCC3)CC2)c2cnccc12` [Example 3, (1R,3S,5R)-2-[2-(3-Acetyl-pyrazolo[3,4-c]pyridin-1-yl)-acetyl]-2-aza-bicyclo[3.1.0] hexane-3-carboxylic acid (spiro[3.5]non-7-ylmethyl)-amide], the pIC50 was 5.87.

As for `CC(=O)c1nn(CC(=O)N2[C@@H]3C[C@@H]3C[C@H]2C(=O)NCC2CCC(C)(C)CC2)c2cnccc12` [Example 4, (1R,3S,5R)-2-[2-(3-Acetyl-pyrazolo[3,4-c]pyridin-1-yl)-acetyl]-2-aza-bicyclo[3.1.0] hexane-3-carboxylic acid (4,4-dimethyl-cyclohexylmethyl)-amide], the pIC50 is 6.02. Same read-out and setting: for `CC(=O)c1nn(CC(=O)N2[C@@H]3C[C@@H]3C[C@H]2C(=O)N[C@@H](C)C2CCCCC2)c2cnccc12` [Example 5, (1R,3S,5R)-2-[2-(3-Acetyl-pyrazolo[3,4-c]pyridin-1-yl)-acetyl]-2-aza-bicyclo[3.1.0] hexane-3-carboxylic acid ((S)-1-cyclohexyl-ethyl)-amide] the value was 5.28.

As to `CC(=O)c1nn(CC(=O)N2[C@@H]3C[C@@H]3C[C@H]2C(=O)N[C@H](C)C2CCCCC2)c2cnccc12` [Example 6, (1R,3S,5R)-2-[2-(3-Acetyl-pyrazolo[3,4-c]pyridin-1-yl)-acetyl]-2-aza-bicyclo[3.1.0] hexane-3-carboxylic acid ((R)-1-cyclohexyl-ethyl)-amide], the pIC50 was 7.15. The same measure, in the same setting: for `CC(=O)c1nn(CC(=O)N2[C@@H]3C[C@@H]3C[C@H]2C(=O)NCC2CC(C)C2)c2cnccc12` (stereo partly drawn) [Example 7, (1R,3S,5R)-2-[2-(3-Acetyl-pyrazolo[3,4-c]pyridin-1-yl)-acetyl]-2-aza-bicyclo[3.1.0] hexane-3-carboxylic acid (3-methyl-cyclobutylmethyl)-amide] the value was 6.59. Still for that read-out and setting: for `CC(=O)c1nn(CC(=O)N2[C@@H]3C[C@@H]3C[C@H]2C(=O)NCC2CC3(CC3)C2)c2cnccc12` [Example 8, (1R,3S,5R)-2-[2-(3-Acetyl-pyrazolo[3,4-c]pyridin-1-yl)-acetyl]-2-aza-bicyclo[3.1.0] hexane-3-carboxylic acid (spiro[2.3]hex-5-ylmethyl)-amide] the value was 6.30; for `CC(=O)c1nn(CC(=O)N2[C@@H]3C[C@@H]3C[C@H]2C(=O)N[C@H](CO)C2CCCCC2)c2cnccc12` [Example 9, (1R,3S,5R)-2-[2-(3-Acetyl-pyrazolo[3,4-c]pyridin-1-yl)-acetyl]-2-aza-bicyclo[3.1.0] hexane-3-carboxylic acid ((S)-1-cyclohexyl-2-hydroxy-ethyl)-amide], 6.33; for `CCC1(CC)CC1CNC(=O)[C@@H]1C[C@H]2C[C@H]2N1C(=O)Cn1nc(C(C)=O)c2cccnc21` (stereo partly drawn) [Example 10, (1R,3S,5R)-2-[2-(3-Acetyl-pyrazolo[3,4-b]pyridin-1-yl)-acetyl]-2-aza-bicyclo[3.1.0] hexane-3-carboxylic acid (2,2-diethyl-cyclopropylmethyl)-amide], 5.85. For `CC(=O)c1nn(CC(=O)N2[C@@H]3C[C@@H]3C[C@H]2C(=O)NCC2CC2(Cl)Cl)c2ncccc12` (stereo partly drawn) [Example 11, (1R,3S,5R)-2-[2-(3-Acetyl-pyrazolo[3,4-b]pyridin-1-yl)-acetyl]-2-aza-bicyclo[3.1.0] hexane-3-carboxylic acid (2,2-dichloro-cyclopropylmethyl)-amide], the pIC50 was 6.79. On the same count and under the same terms, under `CC(=O)c1nn(CC(=O)N2[C@@H]3C[C@@H]3C[C@H]2C(=O)NCC2CC2(C)C)c2ncccc12` (stereo partly drawn) [Example 12, (1R,3S,5R)-2-[2-(3-Acetyl-pyrazolo[3,4-b]pyridin-1-yl)-acetyl]-2-aza-bicyclo[3.1.0] hexane-3-carboxylic acid (2,2-dimethyl-cyclopropylmethyl)-amide] stands 5.85. Same read-out and setting: under `CC(=O)c1nn(CC(=O)N2[C@@H]3C[C@@H]3C[C@H]2C(=O)NCC2(C)CC2(Cl)Cl)c2cnccc12` (stereo partly drawn) [Example 13, (1R,3S,5R)-2-[2-(3-Acetyl-pyrazolo[3,4-c]pyridin-1-yl)-acetyl]-2-aza-bicyclo[3.1.0] hexane-3-carboxylic acid (2,2-dichloro-1-methyl-cyclopropylmethyl)-amide] stands 6.02; under `CC(=O)c1nn(CC(=O)N2[C@@H]3C[C@@H]3C[C@H]2C(=O)NCC2CCCC(C(F)(F)F)C2)c2cnccc12` (stereo partly drawn) [Example 14, (1R,3S,5R)-2-[2-(3-Acetyl-pyrazolo[3,4-c]pyridin-1-yl)-acetyl]-2-aza-bicyclo[3.1.0] hexane-3-carboxylic acid (3-trifluoromethyl-cyclohexylmethyl)-amide], 6.48.

For `CC(=O)c1nn(CC(=O)N2[C@@H]3C[C@@H]3C[C@H]2C(=O)NC2(C3CCCCC3)CC2)c2cnccc12` [Example 15, (1R,3S,5R)-2-[2-(3-Acetyl-pyrazolo[3,4-c]pyridin-1-yl)-acetyl]-2-aza-bicyclo[3.1.0] hexane-3-carboxylic acid (1-cyclohexyl-cyclopropyl)-amide], the pIC50 is 6.45. Still for that read-out and setting: for `NC(=O)n1cc(NC(=O)N2[C@@H]3C[C@@H]3C[C@H]2C(=O)NCC2CCCCC2)c2ccccc21` [Example 25, (1R,3S,5R)-2-Aza-bicyclo[3.1.0]hexane-2,3-dicarboxylic acid 2-[(1-carbamoyl-1H-indol-3-yl)-amide]3-cyclohexylmethyl-amide] the value was 6.59; for `NC(=O)n1cc(NC(=O)N2[C@@H]3C[C@@H]3C[C@H]2C(=O)NCC2CC=CCC2)c2ccccc21` (stereo partly drawn) [Example 26, (1R,3S,5R)-2-Aza-bicyclo[3.1.0]hexane-2,3-dicarboxylic acid 2-[(1-carbamoyl-1H-indol-3-yl)-amide] 3-[(cyclohex-3-enylmethyl)-amide]], 6.52.

Still in this test, the particulars now being: IC50, Factor D inhibition data using Method 1; recombinant human factor D 10 nM, substrate Z-Lys-thiobenzyl, fluorescence.
`CC1CCC(CNC(=O)[C@@H]2C[C@H]3C[C@H]3N2C(=O)Cn2nc(C(N)=O)c3ccccc32)C1` (single isomer, unassigned; dia 2) [Example 90]: the pIC50 was 7.28. Turning to `CC(=O)c1nn(CC(=O)N2[C@@H]3C[C@@H]3C[C@H]2C(=O)NCC2C(C)C2(Cl)Cl)c2ccc(OCc3ncccn3)cc12` (single isomer, unassigned; dia 2) [Example 109, (1R,3S,5R)-2-{2-[3-Acetyl-5-(pyrimidin-2-ylmethoxy)-indazol-1-yl]-acetyl}-2-aza-bicyclo[3.1.0] hexane-3-carboxylic acid ((1R,3S) or (1S,3R)-2,2-dichloro-3-methyl-cyclopropylmethyl)-amide-Dia 2], the pIC50 was 7.31. The same measure, in the same setting: for `CC(=O)c1nn(CC(=O)N2[C@@H]3C[C@@H]3C[C@H]2C(=O)NC(C)C2CC2(Cl)Cl)c2ccc(OCc3ncccn3)cc12` (single isomer, unassigned; dia 3) [Example 34] the value was 6.29; for `NC(=O)c1nn(CC(=O)N2[C@@H]3C[C@@H]3C[C@H]2C(=O)NC(CO)C2CC2(Cl)Cl)c2ccccc12` (single isomer, unassigned; dia 3) [Example 50], 5.14. Still for that read-out and setting: for `CC(=O)c1nn(CC(=O)N2[C@@H]3C[C@@H]3C[C@H]2C(=O)NC(C)C2CC2(Cl)Cl)c2ccc(OCc3ncccn3)cc12` (single isomer, unassigned; dia 4) [Example 35] the value was 6.49. `NC(=O)c1nn(CC(=O)N2[C@@H]3C[C@@H]3C[C@H]2C(=O)NC(CO)C2CC2(Cl)Cl)c2ccccc12` (single isomer, unassigned; dia 4) [Example 51]: the pIC50 is 6.61. Same read-out and setting: for `CC1CCC(CNC(=O)[C@@H]2C[C@H]3C[C@H]3N2C(=O)Cn2nc(C(N)=O)c3ccccc32)C1` (single isomer, unassigned; dia 4) [Example 91] the value was 7.34.
